Source: patent publication USRE42700E1, “Induction of apoptosis in cancer cells” (Sanford-Burnham Medical Research Institute, priority 2001, dated 2011)

What was measured:
RARα = RARα (Homo sapiens, UniProt P10276); assay: activation of RARα on the (TREpal)2-tk-CAT reporter construct; type: cell-based; settings: 1.0 μM
RARβ = RARβ (Homo sapiens, UniProt P10826); assay: activation of RARβ on the (TREpal)2-tk-CAT reporter construct; type: cell-based; settings: 1.0 μM
[1] = system: human acute megakaryocytic leukemia cell line M07e; assay: M07e cell growth / proliferation; type: cell-based
Experimental: (§1) Cell Growth: IL-3-transfected M07e cells have been described by Thacker, D. J., et al., Leukemia 8: 871-877 (1994). Cells were grown in RPMI supplemented with 5 percent heat-inactivated fetal bovine serum (FBS) and 25 μg/ml gentamycin in a […], 5% CO2, and 100% humidity environment. Leukemic cells were obtained from patients who met the criteria for the diagnosis of AML or CML in blast crisis (see Table 1). Studies were approved by the Wayne State University Institutional Review Board. Informed consent was obtained from all patients. Leukemic blasts from patients were isolated using Ficoll hypaque. Cells at the interface between plasma and red blood cells were diluted with sterile PBS, then layered over Ficoll hypaque (1.077 density), and the leukemic cells collected at the interface. The sample to be studied represented greater than 90% blasts. The patient leukemia samples were grown in RPMI medium supplemented with 10% FBS, gentamycin (25 μg/ml), IL-3 (20 ng/ml), SCF (25 ng/ml), GM-CSF (20 ng/ml) and G-CSF (20 ng/ml). Cell growth was assessed using a cell proliferation kit.

[2] = system: leukemic blasts from patients (AML or CML in blast crisis); assay: apoptosis in primary cultures of patient leukemic blasts; type: cell-based, human
Experimental: as §1
(§2) Apoptosis Quantification: Staining of apoptotic cells was performed as described by Gavreli, Y., et al., (J. Cell. Biol. 119: 493-501 (1992)) and Whitacre, C. M., et al., (Cancer Res. 55: 3697-3701 (1995)). After 3-Cl-AHPC treatment, cells were harvested, washed with PBS and resuspended at 1×10^6 cells/ml. Cell suspensions (50 μl) were stained with […] of acridine orange solution ([…]) in PBS in the dark. Cells displaying fragmented DNA were detected using a fluorescent microscope. Apoptotic cells were also detected using a kit. Cells that incorporated fluorescein labeled deoxyuridine triphosphate were detected using flow cytometry.

patient leukemic cells = assay: apoptosis of patient leukemic cells by tunnel assay and flow cytometry; type: cell-based, human; settings: for apoptotic cells: 1 μM, 24 hours
Experimental: as §2
Flow Cytometry: Flow cytometry was performed on a flow cytometer equipped with an argon ion laser tuned to 15 mW at […] for fluorescence excitation and light scattering. Fluorescein isothiocyanate (FITC) fluorescence was detected using a 530/30 nm band pass filter and propidium iodide (PI) fluorescence was reflected with a 560-nm short pass dichroic filter using a 585/42-nm band pass filter. The doublet discrimination module was used to identify cell aggregates (Sharpless, T., et al., Acta Cytologica 19: 577-581 (1975)). Typically, 20,000 events of list mode data were saved and analyzed.

[3] = system: caspases in patient leukemic cells; assay: caspase activation in patient leukemic cells; type: cell-based, human; settings: 1 μM
Experimental: Activation of caspases-1, -2, -3, -6, -8 and -9 was assessed using a caspase activation kit.

[4] = system: Bcl-2 and Mcl-1 in patient leukemic cells and M07e cells; assay: Bcl-2 and Mcl-1 expression; type: cell-based, human; settings: during 3-Cl-AHPC-mediated apoptosis
Experimental: (§3) Western Blots: Western blots were performed according to the protocol of Sheikh, M. S., et al., (Oncogene, 9: 3407-3415 (1994)). Logarithmically growing cells were treated with 3-Cl-AHPC for various times and cells were harvested and lysed in Laemmli lysis buffer (0.5 M Tris-HCl, pH 6.8, 0.002M EDTA, 10% glycerol, 10% sodium dodecyl sulfate (SDS), and 5% β-mercaptoethanol). Protein lysates (50 μg/lane) were electrophoresed on 12% SDS-polyacrylamide gels and transferred to nitrocellulose membranes. Membranes were blocked with 5% nonfat dried milk in PBS/0.5% Tween 20 and then incubated with the appropriate antibodies. Horseradish peroxidase-conjugated rabbit anti-mouse IgG was used as the secondary antibody, and bands were developed using the Amersham ECL non-radioactive method.

Bcl-XL in leukemic cells = assay: Bcl-XL cleavage by Western blot; type: cell-based, human; settings: 1 μM
Experimental: as §3

cancer cells = assay: mitochondrial membrane potential (Δψm) using Rh123; type: cell-based; settings: 10^−6 M
MCF-7 = assay: apoptosis induction / cell death in breast cancer cells; type: cell-based, human
MDA-MB-231 = assay: as above; type: cell-based, human
[5] = system: mouse mammary adenocarcinoma 16/C; assay: mouse mammary adenocarcinoma 16/C in syngeneic female C3H mice
Experimental: The ability of 3-Cl-AHPC to inhibit the in vivo growth of breast carcinoma cells was tested using syngeneic mouse mammary and human breast adenocarcinoma SCID xenograft models.

[6] = system: human MX-1 breast adenocarcinoma cells; assay: MX-1 human mammary adenocarcinoma growth in SCID mice; type: in vivo
[7] = system: ALL cells obtained from patients; assay: apoptosis of primary ALL cells obtained from patients; type: cell-based, human; settings: primary cultures
[8] = total dose 44 mg/kg, days 1-4, 6-8
[9] = total dose 89 mg/kg, days 1-4, 6-8
[10] = total dose 178 mg/kg, days 1-4, 6, 8

Sequence of RARα (P10276 whole entry, species assumed): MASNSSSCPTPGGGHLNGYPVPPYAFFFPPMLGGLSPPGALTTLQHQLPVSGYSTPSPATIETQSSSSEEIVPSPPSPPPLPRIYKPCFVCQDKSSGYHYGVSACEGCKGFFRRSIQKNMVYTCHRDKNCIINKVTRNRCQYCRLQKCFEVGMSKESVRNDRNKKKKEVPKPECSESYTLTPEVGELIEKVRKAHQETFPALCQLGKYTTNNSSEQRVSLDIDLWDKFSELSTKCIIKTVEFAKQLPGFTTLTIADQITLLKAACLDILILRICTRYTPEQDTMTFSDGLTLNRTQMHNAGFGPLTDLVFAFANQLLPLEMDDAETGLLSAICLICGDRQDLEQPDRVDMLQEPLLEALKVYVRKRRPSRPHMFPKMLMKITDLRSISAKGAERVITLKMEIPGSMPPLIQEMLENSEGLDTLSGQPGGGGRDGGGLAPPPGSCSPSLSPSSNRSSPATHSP
Sequence of RARβ (P10826 whole entry, species assumed): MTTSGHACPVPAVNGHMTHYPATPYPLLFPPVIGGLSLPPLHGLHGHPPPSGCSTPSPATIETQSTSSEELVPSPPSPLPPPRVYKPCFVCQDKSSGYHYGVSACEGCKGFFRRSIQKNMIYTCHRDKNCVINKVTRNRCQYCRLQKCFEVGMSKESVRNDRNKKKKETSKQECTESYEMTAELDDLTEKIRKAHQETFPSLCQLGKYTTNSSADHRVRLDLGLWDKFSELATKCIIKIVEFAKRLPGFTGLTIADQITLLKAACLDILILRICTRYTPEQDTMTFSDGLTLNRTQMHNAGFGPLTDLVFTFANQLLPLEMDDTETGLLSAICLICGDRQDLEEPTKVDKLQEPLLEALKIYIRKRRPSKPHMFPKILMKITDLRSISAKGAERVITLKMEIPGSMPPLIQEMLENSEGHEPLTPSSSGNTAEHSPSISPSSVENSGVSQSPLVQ

With `O=C(O)/C=C/c1ccc(-c2ccc(O)c(C34CC5CC(CC(C5)C3)C4)c2)c(Cl)c1` [Example 3-Cl-AHPC, (E)-4-[3-(1-Adamantyl)-4-hydroxyphenyl]-3-chlorocinnamic acid] the “activation of RARα” value (RARα) was “does not activate”, the “activation of RARβ” value (RARβ) was “does not activate” and the “concentration required to inhibit growth of M07e cells” value [1] was 0.2 µM. For the same compound, the inhibition of growth ([1]; 0.2 μM) was “inhibition of growth”, the inhibition of proliferation ([1]; varying concentrations over time) was “progressive increase in the inhibition of proliferation” and the “apoptosis of leukemic blasts” value ([2]; 0.5 μM) was 60%. For the same compound, the induction of apoptosis ([2]; 1 μM, 11 primary cultures) was > 80%, the “apoptosis of leukemic blasts” value ([2]; 0.2 and 0.1 μM) was “minimal apoptosis” and the “proliferation and apoptosis of primary human AML cultures (FIG. 13)” value ([2]; non-APL AML samples) was “inhibited the proliferation and induced apoptosis”. The “concentration required to induce apoptosis” value ([2]; patient leukemic cells) was 0.5 µM, the “patient leukemic cells that underwent apoptosis” value (patient leukemic cells) was “over 80%” and the apoptotic cells (patient leukemic cells; patient 1) was 67%. The apoptotic cells (patient leukemic cells; patient 10) was 80%, the “activation of caspase-2” value [3] was 6 fold and the “activation of caspase-5” value [3] was “two-fold”. The “activation of caspase-6” value [3] was 4 fold, the “activation of caspase-8” value [3] was 4 fold and the “activation of caspase-9” value [3] was “two-fold”. For the same compound, the “activation of caspase-3” value ([3]; 24 hours) was 8 fold, the “activation of caspase-3” value ([3]; 48 hours) was 14 fold and the “modulation of Bcl-2 and Mcl-1 expression” value [4] was “no modulation of their expression”. For the same compound, the Bcl-XL cleavage (Bcl-XL in leukemic cells) was “cleavage of Bcl-XL to a 18-kD product”, the “percentage of cells with Δψm loss” value (cancer cells) was “significant increases in the percentage of cells with Δψm loss” and the ED50 (concentration that results in 50% cell death) (MCF-7) was 0.85 µM. The ED50 (concentration that results in 50% cell death) (MDA-MB-231) was 0.65 µM, the “inhibition of tumor growth” value ([5]; T/C=20%) was 80% and the “toxicity as evidenced by weight loss of the mice” value ([5]; compared to AHPN) was “minimal toxicity”. For the same compound, the “% body wt. loss” value [5, 8] was 4%, the Drug deaths [5, 8] was 0/5 and the T/C % [5, 8] was >100%. The “% body wt. loss” value [5, 9] was −3%, the Drug deaths [5, 9] was 0/5 and the T/C % [5, 9] was 47%. The “% body wt. loss” value [5, 10] was −4%, the Drug deaths [5, 10] was 0/5 and the Log cell kill [5, 10] was 0.9. The T/C % [5, 10] was 20%, the animal deaths ([6]; dose not stated (Table 5)) was “no animal deaths” and the “inhibition of tumor growth” value ([6]; dose not stated (Table 5)) was 70%. For the same compound, the weight loss ([6]; dose not stated (Table 5)) was “less than 4%”, the “% body wt loss” value ([6]; total dose 91 mg/kg, Qd (3-9)) was −2% and the Drug deaths ([6]; total dose 91 mg/kg, Qd (3-9)) was 0/5. For the same compound, the T/C % ([6]; total dose 91 mg/kg, Qd (3-9)) was 62%, the “% body wt loss” value ([6]; total dose 140 mg/kg, Qd (3-9)) was −4% and the Drug deaths ([6]; total dose 140 mg/kg, Qd (3-9)) was 0/5. For the same compound, the T/C % ([6]; total dose 140 mg/kg, Qd (3-9)) was 56%, the “% body wt loss” value ([6]; total dose 210 mg/kg, Qd (3-9)) was −4% and the Drug deaths ([6]; total dose 210 mg/kg, Qd (3-9)) was 0/5. For the same compound, the Log cell kill ([6]; total dose 210 mg/kg, Qd (3-9)) was 1.2, the T/C % ([6]; total dose 210 mg/kg, Qd (3-9)) was 30% and the “apoptosis of ALL cells obtained from patients” value [7] was “resulted in their apoptosis”.
